{"source": "ChEMBL document CHEMBL5634074", "about": "“Azaindole derivatives as potential kinase inhibitors and their SARs elucidation” (Eur J Med Chem, 2023)", "key": {"[1]": {"target": "Voltage-gated inwardly rectifying potassium channel KCNH2 (Homo sapiens, UniProt Q12809)", "sequence (Q12809 whole entry)": "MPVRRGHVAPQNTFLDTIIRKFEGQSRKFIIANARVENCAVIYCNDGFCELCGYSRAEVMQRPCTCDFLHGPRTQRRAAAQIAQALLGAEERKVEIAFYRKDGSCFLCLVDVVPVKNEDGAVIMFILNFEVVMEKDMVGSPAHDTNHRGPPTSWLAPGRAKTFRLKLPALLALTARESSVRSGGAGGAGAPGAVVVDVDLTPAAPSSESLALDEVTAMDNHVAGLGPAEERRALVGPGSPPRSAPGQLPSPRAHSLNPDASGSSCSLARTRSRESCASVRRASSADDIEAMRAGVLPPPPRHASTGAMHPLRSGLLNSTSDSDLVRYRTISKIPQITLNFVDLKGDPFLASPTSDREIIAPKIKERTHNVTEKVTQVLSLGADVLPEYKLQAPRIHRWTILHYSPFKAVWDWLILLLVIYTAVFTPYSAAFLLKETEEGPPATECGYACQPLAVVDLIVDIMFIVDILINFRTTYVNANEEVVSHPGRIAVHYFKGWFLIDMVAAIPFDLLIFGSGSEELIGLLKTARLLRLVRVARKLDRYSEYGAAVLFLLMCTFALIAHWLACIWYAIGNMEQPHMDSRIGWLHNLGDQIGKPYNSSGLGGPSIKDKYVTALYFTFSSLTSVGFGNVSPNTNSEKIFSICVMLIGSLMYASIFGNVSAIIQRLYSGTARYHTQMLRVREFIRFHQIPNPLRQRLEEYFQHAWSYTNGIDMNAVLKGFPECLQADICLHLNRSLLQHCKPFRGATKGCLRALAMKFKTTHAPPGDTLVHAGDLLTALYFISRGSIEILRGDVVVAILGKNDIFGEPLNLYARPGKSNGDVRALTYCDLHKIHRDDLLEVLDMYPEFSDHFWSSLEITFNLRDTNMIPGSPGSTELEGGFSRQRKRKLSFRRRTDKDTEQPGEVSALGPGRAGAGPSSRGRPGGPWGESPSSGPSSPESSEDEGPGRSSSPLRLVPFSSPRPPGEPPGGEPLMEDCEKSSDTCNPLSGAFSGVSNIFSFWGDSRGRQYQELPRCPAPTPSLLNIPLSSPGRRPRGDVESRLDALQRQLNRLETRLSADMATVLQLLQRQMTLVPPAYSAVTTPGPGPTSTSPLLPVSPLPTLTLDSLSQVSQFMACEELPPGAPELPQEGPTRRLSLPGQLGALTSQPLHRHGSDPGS", "experiment": "Inhibition of hERG (unknown origin)", "type": "toxicity"}, "KG-1": {"tested_on": "KG-1", "experiment": "cells", "details": "Homo sapiens, KG-1, 72 h"}, "[2]": {"target": "[Pyruvate dehydrogenase (acetyl-transferring)] kinase isozyme 1, mitochondrial (Homo sapiens, UniProt Q15118)", "sequence (Q15118 whole entry)": "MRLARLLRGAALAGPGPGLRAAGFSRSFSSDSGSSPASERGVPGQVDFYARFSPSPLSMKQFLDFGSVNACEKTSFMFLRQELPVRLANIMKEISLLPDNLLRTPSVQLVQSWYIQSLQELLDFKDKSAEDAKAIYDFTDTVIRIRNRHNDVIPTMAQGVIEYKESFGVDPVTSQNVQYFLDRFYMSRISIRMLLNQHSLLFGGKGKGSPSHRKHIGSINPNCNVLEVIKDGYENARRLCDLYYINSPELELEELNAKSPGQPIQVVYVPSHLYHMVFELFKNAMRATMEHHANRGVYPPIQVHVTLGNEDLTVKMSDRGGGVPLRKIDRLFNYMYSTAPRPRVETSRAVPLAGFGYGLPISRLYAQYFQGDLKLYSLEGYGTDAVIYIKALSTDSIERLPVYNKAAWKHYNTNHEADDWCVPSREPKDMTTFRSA", "experiment": "Inhibition of PDK1 (unknown origin) incubated for 30 mins followed by substrate addition measured after 60 mins in presence of ATP by ADP-Glo luminescent assay"}, "PSN1": {"tested_on": "PSN1", "type": "functional, cell-based", "details": "Homo sapiens, PSN1, 72 h"}, "[3]": {"target": "T1, Receptor-interacting serine/threonine-protein kinase 1 (Homo sapiens, UniProt Q13546)", "T1 sequence (Q13546 whole entry)": "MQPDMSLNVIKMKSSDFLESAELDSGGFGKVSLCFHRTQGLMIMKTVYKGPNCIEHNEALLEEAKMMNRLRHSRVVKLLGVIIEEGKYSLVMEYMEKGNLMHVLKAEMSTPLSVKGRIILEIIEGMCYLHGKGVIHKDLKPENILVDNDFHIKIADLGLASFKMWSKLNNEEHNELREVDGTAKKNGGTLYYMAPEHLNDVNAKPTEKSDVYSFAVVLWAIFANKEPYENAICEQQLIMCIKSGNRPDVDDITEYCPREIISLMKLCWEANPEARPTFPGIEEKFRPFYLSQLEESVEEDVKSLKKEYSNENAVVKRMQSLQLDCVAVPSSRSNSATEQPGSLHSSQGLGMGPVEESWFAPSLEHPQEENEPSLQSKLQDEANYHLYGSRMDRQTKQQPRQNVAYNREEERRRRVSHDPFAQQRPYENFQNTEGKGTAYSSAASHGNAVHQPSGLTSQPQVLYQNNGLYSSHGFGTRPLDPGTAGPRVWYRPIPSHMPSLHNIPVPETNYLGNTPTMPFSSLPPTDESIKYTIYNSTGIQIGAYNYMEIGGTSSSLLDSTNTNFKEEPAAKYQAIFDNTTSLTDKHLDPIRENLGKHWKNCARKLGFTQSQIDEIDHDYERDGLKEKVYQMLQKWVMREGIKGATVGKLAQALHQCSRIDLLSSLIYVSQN", "experiment": "Inhibition of human RIPK1 by ADP-Glo assay"}, "[4]": {"target": "Receptor-interacting serine/threonine-protein kinase 3 (Homo sapiens, UniProt Q9Y572)", "experiment": "Inhibition of RIPK3 (unknown origin)"}, "[5]": {"target": "T1, Receptor-interacting serine/threonine-protein kinase 1", "experiment": "Inhibition of RIPK1 (unknown origin)"}, "[6]": {"target": "Phosphatidylinositol 4,5-bisphosphate 3-kinase catalytic subunit alpha isoform (Homo sapiens, UniProt P42336)", "sequence (P42336 whole entry, canonical isoform)": "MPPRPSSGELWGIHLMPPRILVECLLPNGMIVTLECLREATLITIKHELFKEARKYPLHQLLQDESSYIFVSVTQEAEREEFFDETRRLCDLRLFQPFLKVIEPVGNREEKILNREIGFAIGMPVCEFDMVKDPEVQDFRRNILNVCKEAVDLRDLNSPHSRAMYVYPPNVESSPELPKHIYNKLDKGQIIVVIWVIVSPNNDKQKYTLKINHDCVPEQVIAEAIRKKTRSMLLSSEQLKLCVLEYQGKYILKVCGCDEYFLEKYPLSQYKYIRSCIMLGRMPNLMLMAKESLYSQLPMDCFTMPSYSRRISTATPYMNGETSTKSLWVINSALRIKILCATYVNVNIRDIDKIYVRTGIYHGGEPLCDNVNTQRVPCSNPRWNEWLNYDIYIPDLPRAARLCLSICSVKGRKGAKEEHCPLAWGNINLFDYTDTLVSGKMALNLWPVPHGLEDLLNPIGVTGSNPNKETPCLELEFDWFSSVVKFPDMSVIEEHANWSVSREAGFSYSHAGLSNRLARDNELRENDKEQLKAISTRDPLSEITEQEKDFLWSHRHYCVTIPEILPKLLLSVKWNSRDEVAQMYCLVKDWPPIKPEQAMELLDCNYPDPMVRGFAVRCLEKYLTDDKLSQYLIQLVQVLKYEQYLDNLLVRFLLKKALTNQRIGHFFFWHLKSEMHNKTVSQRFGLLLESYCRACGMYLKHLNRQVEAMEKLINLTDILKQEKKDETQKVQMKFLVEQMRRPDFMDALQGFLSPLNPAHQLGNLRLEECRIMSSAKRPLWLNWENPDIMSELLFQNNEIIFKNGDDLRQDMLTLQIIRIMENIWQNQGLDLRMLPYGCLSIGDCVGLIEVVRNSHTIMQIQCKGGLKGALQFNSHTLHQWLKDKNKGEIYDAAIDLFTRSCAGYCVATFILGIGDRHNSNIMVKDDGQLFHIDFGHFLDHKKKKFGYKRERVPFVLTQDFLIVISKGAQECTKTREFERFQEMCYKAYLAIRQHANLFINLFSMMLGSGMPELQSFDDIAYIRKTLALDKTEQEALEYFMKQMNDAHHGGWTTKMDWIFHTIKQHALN", "experiment": "Inhibition of PI3Kalpha (unknown origin)"}, "[7]": {"target": "Phosphatidylinositol 4,5-bisphosphate 3-kinase catalytic subunit beta isoform (Homo sapiens, UniProt P42338)", "sequence (P42338 whole entry, canonical isoform)": "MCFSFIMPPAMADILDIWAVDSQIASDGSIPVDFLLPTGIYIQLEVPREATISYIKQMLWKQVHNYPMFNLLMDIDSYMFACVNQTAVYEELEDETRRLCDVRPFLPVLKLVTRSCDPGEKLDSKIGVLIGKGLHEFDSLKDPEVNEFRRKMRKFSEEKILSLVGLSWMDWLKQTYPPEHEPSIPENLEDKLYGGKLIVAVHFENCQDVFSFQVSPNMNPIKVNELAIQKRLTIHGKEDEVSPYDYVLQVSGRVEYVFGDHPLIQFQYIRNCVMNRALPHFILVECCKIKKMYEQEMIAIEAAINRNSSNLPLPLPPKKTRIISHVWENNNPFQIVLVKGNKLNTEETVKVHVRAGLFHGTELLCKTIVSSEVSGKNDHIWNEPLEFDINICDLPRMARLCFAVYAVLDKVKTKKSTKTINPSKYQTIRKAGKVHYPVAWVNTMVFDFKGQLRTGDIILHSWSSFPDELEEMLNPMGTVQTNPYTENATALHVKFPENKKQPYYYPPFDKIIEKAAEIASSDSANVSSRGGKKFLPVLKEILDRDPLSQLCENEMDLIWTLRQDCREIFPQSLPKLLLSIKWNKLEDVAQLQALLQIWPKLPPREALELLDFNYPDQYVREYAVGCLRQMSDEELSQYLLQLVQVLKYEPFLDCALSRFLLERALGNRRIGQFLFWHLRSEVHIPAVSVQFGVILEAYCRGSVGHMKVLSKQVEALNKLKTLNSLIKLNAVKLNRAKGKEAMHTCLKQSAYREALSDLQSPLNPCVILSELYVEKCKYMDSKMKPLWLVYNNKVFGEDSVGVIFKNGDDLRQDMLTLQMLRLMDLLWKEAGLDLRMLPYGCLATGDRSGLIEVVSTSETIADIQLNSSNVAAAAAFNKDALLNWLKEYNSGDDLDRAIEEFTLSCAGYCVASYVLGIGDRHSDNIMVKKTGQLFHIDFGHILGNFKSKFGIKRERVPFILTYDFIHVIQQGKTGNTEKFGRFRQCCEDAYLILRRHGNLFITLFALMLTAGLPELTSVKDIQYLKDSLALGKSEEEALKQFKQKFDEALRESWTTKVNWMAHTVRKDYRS", "experiment": "Inhibition of PI3Kbeta (unknown origin)"}, "[8]": {"target": "T2, Phosphatidylinositol 4,5-bisphosphate 3-kinase catalytic subunit delta isoform (Homo sapiens, UniProt O00329)", "T2 sequence (O00329 whole entry)": "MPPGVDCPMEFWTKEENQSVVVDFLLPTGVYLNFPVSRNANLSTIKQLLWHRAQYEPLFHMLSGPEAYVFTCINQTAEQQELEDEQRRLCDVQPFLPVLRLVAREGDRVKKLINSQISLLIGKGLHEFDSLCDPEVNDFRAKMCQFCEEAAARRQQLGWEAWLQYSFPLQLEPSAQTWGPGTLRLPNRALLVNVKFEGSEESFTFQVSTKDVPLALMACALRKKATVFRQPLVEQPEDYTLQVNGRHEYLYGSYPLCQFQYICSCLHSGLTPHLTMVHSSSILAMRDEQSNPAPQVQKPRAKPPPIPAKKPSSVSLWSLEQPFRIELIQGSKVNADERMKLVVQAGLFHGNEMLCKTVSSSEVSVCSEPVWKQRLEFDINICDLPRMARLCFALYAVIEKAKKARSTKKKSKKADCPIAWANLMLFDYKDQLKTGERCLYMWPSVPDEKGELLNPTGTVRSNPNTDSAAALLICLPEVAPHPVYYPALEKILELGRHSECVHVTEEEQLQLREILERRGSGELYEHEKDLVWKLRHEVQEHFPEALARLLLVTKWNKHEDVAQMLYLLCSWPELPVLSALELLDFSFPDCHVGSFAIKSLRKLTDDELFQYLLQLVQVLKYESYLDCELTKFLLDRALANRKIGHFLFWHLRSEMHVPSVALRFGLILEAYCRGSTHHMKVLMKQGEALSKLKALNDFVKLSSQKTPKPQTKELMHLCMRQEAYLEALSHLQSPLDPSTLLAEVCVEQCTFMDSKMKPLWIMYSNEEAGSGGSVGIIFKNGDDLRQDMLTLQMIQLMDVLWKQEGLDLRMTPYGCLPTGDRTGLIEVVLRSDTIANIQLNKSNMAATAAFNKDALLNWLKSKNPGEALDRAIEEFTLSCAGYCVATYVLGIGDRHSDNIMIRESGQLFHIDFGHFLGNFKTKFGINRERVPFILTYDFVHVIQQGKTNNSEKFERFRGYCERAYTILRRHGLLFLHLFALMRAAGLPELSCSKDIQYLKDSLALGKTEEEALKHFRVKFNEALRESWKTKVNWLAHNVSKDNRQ", "experiment": "Inhibition of PI3Kdelta (unknown origin)"}, "[9]": {"target": "Phosphatidylinositol 4,5-bisphosphate 3-kinase catalytic subunit gamma isoform (Homo sapiens, UniProt P48736)", "sequence (P48736 whole entry, canonical isoform)": "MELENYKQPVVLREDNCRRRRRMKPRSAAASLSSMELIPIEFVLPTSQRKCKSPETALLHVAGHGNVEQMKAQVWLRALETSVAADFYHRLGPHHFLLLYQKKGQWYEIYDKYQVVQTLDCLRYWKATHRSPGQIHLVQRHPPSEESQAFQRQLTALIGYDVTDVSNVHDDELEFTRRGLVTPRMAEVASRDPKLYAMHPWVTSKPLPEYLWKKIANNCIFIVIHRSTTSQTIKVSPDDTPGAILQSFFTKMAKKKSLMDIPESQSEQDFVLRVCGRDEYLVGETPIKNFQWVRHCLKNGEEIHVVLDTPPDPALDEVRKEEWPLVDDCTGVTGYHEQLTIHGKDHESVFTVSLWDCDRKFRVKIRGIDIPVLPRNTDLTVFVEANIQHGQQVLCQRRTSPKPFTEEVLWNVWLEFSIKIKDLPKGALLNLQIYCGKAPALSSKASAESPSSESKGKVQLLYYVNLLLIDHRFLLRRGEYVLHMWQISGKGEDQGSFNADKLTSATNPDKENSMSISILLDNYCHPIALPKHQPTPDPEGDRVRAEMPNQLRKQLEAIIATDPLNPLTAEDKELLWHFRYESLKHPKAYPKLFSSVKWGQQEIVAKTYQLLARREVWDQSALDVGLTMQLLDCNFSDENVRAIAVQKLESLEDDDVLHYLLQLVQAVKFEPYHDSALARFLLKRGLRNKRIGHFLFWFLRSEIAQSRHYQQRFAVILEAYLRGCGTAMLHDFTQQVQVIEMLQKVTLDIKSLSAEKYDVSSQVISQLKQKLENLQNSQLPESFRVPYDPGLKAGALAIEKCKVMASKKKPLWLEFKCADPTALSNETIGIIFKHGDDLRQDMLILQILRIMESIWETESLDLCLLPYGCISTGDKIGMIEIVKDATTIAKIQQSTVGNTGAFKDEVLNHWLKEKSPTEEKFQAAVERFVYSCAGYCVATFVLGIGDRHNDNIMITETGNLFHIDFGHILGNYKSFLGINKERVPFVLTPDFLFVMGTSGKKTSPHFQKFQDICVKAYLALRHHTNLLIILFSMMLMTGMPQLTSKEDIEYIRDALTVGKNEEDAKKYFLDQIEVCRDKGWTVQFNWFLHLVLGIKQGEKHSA", "experiment": "Inhibition of PI3Kgamma (unknown origin)"}, "MCF7": {"tested_on": "MCF7", "experiment": "Antiproliferative activity against human MCF7 cells assessed as reduction in cell viability measured after 48 hrs by MTT assay", "type": "functional, cell-based", "details": "MCF7, 48 h"}, "MDA-MB-231": {"tested_on": "MDA-MB-231", "type": "functional, cell-based", "details": "Homo sapiens, MDA-MB-231, 48 h"}, "[10]": {"target": "Proto-oncogene tyrosine-protein kinase receptor Ret (Homo sapiens, UniProt P07949)", "experiment": "Inhibition of RET (unknown origin) by DiscoverX KINOMEscan assay"}, "[11]": {"experiment": "Efflux ratio of apparent permeability across basolateral to apical side over apical to basolateral side in dog MDCK-MDR1 cells at 5 uM incubated for 90 mins by LC-MS/MS analysis", "type": "ADME, cell-based, Canis lupus familiaris"}, "Dengue virus": {"tested_on": "Dengue virus", "experiment": "Antiviral activity against DENV infected in human Huh-7 cells assessed as reduction in viral growth incubated for 72 hrs by flow cytometry", "type": "functional, organism-based", "details": "Huh-7, 72 h"}, "[12]": {"target": "High affinity nerve growth factor receptor (Homo sapiens, UniProt P04629)", "experiment": "Inhibition of TRKA (unknown origin) by Ambit kinase assay"}}, "data": [{"smiles": "NC(=O)c1cc(Cl)c2c(Cl)c(I)n(C3CCCNC3)c2n1", "note": "(centres undefined)", "values": [{"measurement": "IC50", "setting": "[1]", "value": 1000, "unit": "nM"}, {"measurement": "IC50", "setting": "KG-1", "value": "< 100", "unit": "nM"}]}, {"smiles": "NC(=O)c1cc(Cl)c2c(Cl)c(C3CC3)n(C3CCCNC3)c2n1", "note": "(centres undefined)", "values": [{"measurement": "IC50", "setting": "[1]", "value": 1000, "unit": "nM"}, {"measurement": "IC50", "setting": "KG-1", "value": "< 100", "unit": "nM"}]}, {"smiles": "Cn1cc(-c2nc(N)nnc2-c2c[nH]c3ccc(F)cc23)c2cc(Br)cnc21", "values": [{"measurement": "IC50", "setting": "[2]", "value": 30, "unit": "nM"}, {"measurement": "IC50", "setting": "PSN1", "value": 3300, "unit": "nM"}]}, {"smiles": "Cn1cc(-c2nnc(N)nc2-c2c[nH]c3ccc(Br)cc23)c2cc(Br)cnc21", "values": [{"measurement": "IC50", "setting": "[2]", "value": 30, "unit": "nM"}, {"measurement": "IC50", "setting": "PSN1", "value": 3300, "unit": "nM"}]}, {"smiles": "O=C(c1ccc(-c2cc3cccnc3[nH]2)cc1)N1CCOCC1", "values": [{"measurement": "IC50", "setting": "[3]", "value": 80, "unit": "nM"}, {"measurement": "IC50", "setting": "[4]", "value": "> 20000", "unit": "nM"}]}, {"smiles": "NC(=O)c1ccc(-c2cc3cccnc3[nH]2)cc1", "values": [{"measurement": "IC50", "setting": "[5]", "value": 90, "unit": "nM"}]}, {"smiles": "Cn1cc(-c2nnc(N)nc2-c2c[nH]c3ccc(F)cc23)c2cc(Br)cnc21", "values": [{"measurement": "IC50", "setting": "[2]", "value": 30, "unit": "nM"}, {"measurement": "IC50", "setting": "PSN1", "value": 3300, "unit": "nM"}]}, {"smiles": "O=S(=O)(Nc1cc(-c2cnc3[nH]cc(-c4ccc(N5CCOCC5)nc4)c3c2)cnc1Cl)c1ccccc1", "values": [{"measurement": "IC50", "setting": "[6]", "value": 0.3, "unit": "nM"}, {"measurement": "IC50", "setting": "[7]", "value": 0.3, "unit": "nM"}, {"measurement": "IC50", "setting": "[8]", "value": 0.3, "unit": "nM"}, {"measurement": "IC50", "setting": "[9]", "value": 0.3, "unit": "nM"}, {"measurement": "IC50", "setting": "MCF7", "value": 1190, "unit": "nM"}, {"measurement": "IC50", "setting": "MDA-MB-231", "value": 450, "unit": "nM"}]}, {"smiles": "Cn1cc(-c2nc(N)nnc2-c2c[nH]c3ccc(Br)cc23)c2cc(Br)cnc21", "values": [{"measurement": "IC50", "setting": "[2]", "value": 30, "unit": "nM"}, {"measurement": "IC50", "setting": "PSN1", "value": 3300, "unit": "nM"}]}, {"smiles": "O=S(=O)(Nc1cc(-c2cnc3[nH]cc(-c4cnn(CCN5CCOCC5)c4)c3c2)cnc1Cl)c1ccccc1", "values": [{"measurement": "IC50", "setting": "[6]", "value": 0.3, "unit": "nM"}, {"measurement": "IC50", "setting": "[7]", "value": 0.3, "unit": "nM"}, {"measurement": "IC50", "setting": "[8]", "value": 0.3, "unit": "nM"}, {"measurement": "IC50", "setting": "[9]", "value": 0.3, "unit": "nM"}, {"measurement": "IC50", "setting": "MCF7", "value": 6000, "unit": "nM"}, {"measurement": "IC50", "setting": "MDA-MB-231", "value": 1200, "unit": "nM"}]}, {"smiles": "CN1CCN(Cc2ccc(NC(=O)c3cccc(/N=N/c4cnc5[nH]ccc5c4)c3)cc2C(F)(F)F)CC1", "values": [{"measurement": "IC50", "setting": "[10]", "value": 50, "unit": "nM"}]}, {"smiles": "NC(=O)c1cc(Cl)c2c(Cl)c(C#CC3CC3)n(C3CCCNC3)c2n1", "note": "(centres undefined)", "values": [{"measurement": "IC50", "setting": "KG-1", "value": "< 100", "unit": "nM"}]}, {"smiles": "Oc1ccc(-c2cnc3[nH]ccc3c2)cc1", "values": [{"measurement": "IC50", "setting": "[5]", "value": 1470, "unit": "nM"}]}, {"smiles": "Cc1cc(-n2cc(C(=O)N3CCO[C@@H](C)C3)c3ccc(OC(C)c4ccc(F)cn4)nc32)n[nH]1", "note": "(some centres undefined)", "values": [{"measurement": "efflux ratio at 1.5 h, 5 µM", "setting": "[11]", "value": 1}]}, {"smiles": "COc1ccc(-c2cnc3[nH]cc(C#Cc4cccnc4)c3c2)cc1OC", "values": [{"measurement": "EC50", "setting": "Dengue virus", "value": 720, "unit": "nM"}]}, {"smiles": "Cc1cc(-n2cc(C(=O)N3CCOCC3)c3ccc(N[C@@H](C)c4ccc(F)cn4)nc32)[nH]n1", "values": [{"measurement": "IC50", "setting": "[12]", "value": 2.5, "unit": "nM"}, {"measurement": "efflux ratio at 1.5 h, 5 µM", "setting": "[11]", "value": 18}]}]}
